{
  "source": "patent US11427548B2",
  "about": "(Arvinas Operations, Inc., priority 2015, dated 2022)",
  "biological_target": "T1, Androgen Receptor (Homo sapiens, UniProt P10275)",
  "T1 construct": "endogenous in cells; host or cells: VCaP cells",
  "T1 sequence (P10275 1-920)": "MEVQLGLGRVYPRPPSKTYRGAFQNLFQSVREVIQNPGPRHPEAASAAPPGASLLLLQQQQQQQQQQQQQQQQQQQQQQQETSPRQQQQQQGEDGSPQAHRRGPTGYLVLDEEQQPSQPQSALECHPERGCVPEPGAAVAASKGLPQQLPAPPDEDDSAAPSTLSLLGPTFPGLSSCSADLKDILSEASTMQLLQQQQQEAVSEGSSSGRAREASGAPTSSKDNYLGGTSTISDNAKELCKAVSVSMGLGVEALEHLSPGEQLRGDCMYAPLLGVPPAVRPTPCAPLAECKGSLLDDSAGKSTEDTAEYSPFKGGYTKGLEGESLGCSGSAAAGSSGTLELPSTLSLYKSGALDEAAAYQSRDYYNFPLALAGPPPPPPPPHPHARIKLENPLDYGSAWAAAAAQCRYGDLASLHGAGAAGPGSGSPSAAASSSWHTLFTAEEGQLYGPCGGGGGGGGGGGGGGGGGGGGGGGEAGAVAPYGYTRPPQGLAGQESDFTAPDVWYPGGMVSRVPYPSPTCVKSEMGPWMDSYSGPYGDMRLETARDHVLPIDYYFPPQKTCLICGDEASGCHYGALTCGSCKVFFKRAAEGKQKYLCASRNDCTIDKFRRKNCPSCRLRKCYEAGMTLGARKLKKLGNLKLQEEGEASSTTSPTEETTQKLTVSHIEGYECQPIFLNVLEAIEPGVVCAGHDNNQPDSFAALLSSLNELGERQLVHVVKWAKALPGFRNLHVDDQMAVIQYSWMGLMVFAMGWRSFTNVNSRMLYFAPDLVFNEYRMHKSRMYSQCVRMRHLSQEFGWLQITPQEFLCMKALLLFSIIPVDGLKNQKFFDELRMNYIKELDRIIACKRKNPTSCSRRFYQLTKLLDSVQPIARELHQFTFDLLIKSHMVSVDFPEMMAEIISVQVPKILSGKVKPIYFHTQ",
  "test": "Androgen Receptor ELISA assay (PathScan AR ELISA) in VCaP cells: AR degradation, Dmax and DC50",
  "format": "cell-based",
  "how_it_was_run": "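After 24 h exposure of VCaP cells (charcoal-stripped serum, 0.1 nM R1881 agonist, 0.1% DMSO) to seven half-log compound concentrations, residual AR in lysates was measured by PathScan ELISA (TMB absorbance, 450 nm). Cells were plated at 30,000/well and grown at least 3 days beforehand.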",
  "key": {"[1]": {"details": "VCaP cells; Table 36; read-out: VCaP DC50"}, "[2]": {"details": "VCaP, VCaP cells; Table 36; read-out: VCaP Dmax (%)"}, "[3]": {"details": "VCaP cells; Table 35; read-out: VCaP DC50"}, "[4]": {"details": "VCaP, VCaP cells; Table 35; read-out: VCaP Dmax (%)"}},
  "note": "Where two headings read alike, the source gives them in different places.",
  "data": [
    {"smiles": "Cc1ncsc1-c1ccc([C@H](C)NC(=O)[C@@H]2C[C@@H](O)CN2C(=O)[C@@H](NC(=O)COC[C@@H](O)[C@H](O)COc2ccc(-c3ccc(N4C(=S)N(c5ccc(C#N)c(C(F)(F)F)c5)C(=O)C4(C)C)cc3)cc2)C(C)(C)C)cc1", "note": "[Example 574]", "values": [
      {"measurement": "Dmax", "setting": "VCaP, read-out: VCaP Dmax (%)", "value": "> 71", "unit": "%"},
      {"measurement": "DC50", "setting": "read-out: VCaP DC50; VCaP cells; Table 35", "value": "< 50", "unit": "nM"}
    ]},
    {"smiles": "Cc1ncsc1-c1ccc([C@H](C)NC(=O)[C@@H]2C[C@@H](O)CN2C(=O)[C@@H](NC(=O)CN2CCN(C3CN(c4ccc(C(=O)N[C@H]5C(C)(C)[C@H](Oc6ccc(C#N)c(Cl)c6)C5(C)C)cn4)C3)CC2)C(C)(C)C)cc1", "note": "[Example 795, N-((1r,3r)-3-(3-chloro-4-cyanophenoxy)-2,2,4,4-tetramethylcyclobutyl)-6-(3-(4-(2-(((S)-1-((2S,4R)-4-hydroxy-2-(((S)-1-(4-(4-methylthiazol-5-yl)phenyl)ethyl)carbamoyl)pyrrolidin-1-yl)-3,3-dimethyl-1-oxobutan-2-yl)amino)-2-oxoethyl)piperazin-1-yl)azetidin-1-yl)nicotinamide]", "values": [
      {"measurement": "DC50", "setting": "[1]", "value": "< 50", "unit": "nM"},
      {"measurement": "Dmax", "setting": "[2]", "value": "> 71", "unit": "%"}
    ]},
    {"smiles": "Cc1ncsc1-c1ccc([C@H](C)NC(=O)[C@@H]2C[C@@H](O)CN2C(=O)[C@@H](NC(=O)COC2CC(N3CCN(c4ccc(C(=O)NC5C(C)(C)C(Oc6ccc(C#N)c(Cl)c6)C5(C)C)cn4)CC3)C2)C(C)(C)C)cc1", "note": "(stereo partly drawn) [Example 846, N-((1r,3R)-3-(3-chloro-4-cyanophenoxy)-2,2,4,4-tetramethylcyclobutyl)-6-(4-((1S,3R)-3-(2-(((S)-1-((2S,4R)-4-hydroxy-2-(((S)-1-(4-(4-methylthiazol-5-yl)phenyl)ethyl)carbamoyl)pyrrolidin-1-yl)-3,3-dimethyl-1-oxobutan-2-yl)amino)-2-oxoethoxy)cyclobutyl)piperazin-1-yl)nicotinamide]", "values": [
      {"measurement": "DC50", "setting": "[1]", "value": "< 50", "unit": "nM"},
      {"measurement": "Dmax", "setting": "[2]", "value": "> 71", "unit": "%"}
    ]},
    {"smiles": "Cc1ncsc1-c1ccc(CNC(=O)[C@@H]2C[C@@H](O)CN2C(=O)[C@@H](NC(=O)COc2ccc3cc(COc4ccc(N5C(=S)N(c6ccc(C#N)c(C(F)(F)F)c6)C(=O)C5(C)C)cc4)ccc3c2)C(C)(C)C)cc1", "note": "[Example 378]", "values": [
      {"measurement": "Dmax", "setting": "VCaP, read-out: VCaP Dmax (%)", "value": "51 to 70", "unit": "%"},
      {"measurement": "DC50", "setting": "read-out: VCaP DC50; VCaP cells; Table 34", "value": "< 50", "unit": "nM"}
    ]},
    {"smiles": "Cc1ncoc1-c1ccc(CNC(=O)[C@@H]2C[C@@H](O)CN2C(=O)[C@@H](NC(=O)COCCCCOc2ccc(C(=O)N[C@H]3C(C)(C)[C@H](Oc4ccc(C#N)c(Cl)c4)C3(C)C)cc2)C(C)(C)C)cc1", "note": "[Example 164, (2S,4R)-1-[(2S)-3,3-dimethyl-2-{2-[4-(4-{[trans-3-(3-chloro-4-cyanophenoxy)-2,2,4,4-tetramethylcyclobutyl]carbamoyl}phenoxy)butoxy]acetamido}butanoyl]-4-hydroxy-N-{[4-(4-methyl-1,3-oxazol-5-yl)phenyl]methyl}pyrrolidine-2-carboxamide]", "values": [
      {"measurement": "Dmax", "setting": "VCaP, highest percentage of Androgen Receptor degradation observed, VCaP cells (Table 32); read-out: VCaP Dmax (%)", "value": "> 71", "unit": "%"},
      {"measurement": "DC50", "setting": "concentration that caused 50% Androgen Receptor degradation, VCaP cells (Table 32); read-out: VCaP DC50", "value": "< 50", "unit": "nM"}
    ]},
    {"smiles": "Cc1ncsc1-c1ccc(CNC(=O)[C@@H]2C[C@@H](O)CN2C(=O)[C@@H](NC(=O)COCCCOCCCCCOc2ccc(N3C(=S)N(c4cccc(C(F)(F)F)c4)C(=O)C3(C)C)cc2)C(C)(C)C)cc1", "note": "[Example 478]", "values": [
      {"measurement": "DC50", "setting": "[3]", "value": "51 to 500", "unit": "nM"},
      {"measurement": "Dmax", "setting": "[4]", "value": "26 to 50", "unit": "%"}
    ]},
    {"smiles": "CC(C)(C)[C@H](NC(=O)COCCNc1ccc(-c2ccc(C(=O)N[C@H]3C(C)(C)[C@H](Oc4ccc(C#N)c(Cl)c4)C3(C)C)cc2)cc1)C(=O)N1C[C@H](O)C[C@H]1C(=O)NCc1ccc(C#N)cc1", "note": "[Example 524]", "values": [
      {"measurement": "DC50", "setting": "[3]", "value": "< 50", "unit": "nM"},
      {"measurement": "Dmax", "setting": "[4]", "value": "51 to 70", "unit": "%"}
    ]},
    {"smiles": "Cc1ncsc1-c1ccc([C@H](CO)NC(=O)[C@@H]2C[C@@H](O)CN2C(=O)[C@@H](NC(=O)COCCN2C3CCC2CN(c2ccc(C(=O)N[C@H]4C(C)(C)[C@H](Oc5ccc(C#N)c(Cl)c5)C4(C)C)cn2)C3)C(C)(C)C)cc1", "note": "[Example 821, N-((1r,3r)-3-(3-chloro-4-cyanophenoxy)-2,2,4,4-tetramethylcyclobutyl)-6-(8-(2-(2-(((S)-1-((2S, 4R)-4-hydroxy-2-(((R)-2-hydroxy-1-(4-(4-methylthiazol-5-yl)phenyl)ethyl)carbamoyl)pyrrolidin-1-yl)-3,3-dimethyl-1-oxobutan-2-yl)amino)-2-oxoethoxy)ethyl)-3,8-diazabicyclo [3.2.1]octan-3-yl) nicotinamide]", "values": [
      {"measurement": "Dmax", "setting": "VCaP, read-out: VCaP Dmax (%)", "value": "> 71", "unit": "%"},
      {"measurement": "DC50", "setting": "read-out: VCaP DC50; VCaP cells; Table 36", "value": "< 50", "unit": "nM"}
    ]}
  ]
}
